How the values were obtained:
[1] = target: GDP-bound NRAS wild-type protein (Homo sapiens, UniProt P01111); assay: Binding to NRAS by surface plasmon resonance (SPR), Single Cycle Kinetics; conditions: SPR, GDP-bound NRAS wild-type protein vs GDP-bound KRAS wild-type protein
[2] = tested on: human lung cancer strain NCI-H441;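 note: cell proliferation inhibition after four days measured by CellTiter-Glo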
[3] = target: GDP-bound HRAS wild-type protein (Homo sapiens, UniProt P01112); assay: Binding to HRAS by surface plasmon resonance (SPR), Single Cycle Kinetics; conditions: SPR, GDP-bound HRAS wild-type protein vs GDP-bound KRAS wild-type protein
[4] = target: GDP-bound KRAS wild-type protein (Homo sapiens, UniProt P01116); assay: Binding to KRAS by surface plasmon resonance (SPR), Single Cycle Kinetics; conditions: SPR, Single Cycle Kinetics, GDP-bound KRAS wild-type protein; read-out: KRAS KD
GDP-bound KRAS wild-type protein, sequence (P01116 whole entry): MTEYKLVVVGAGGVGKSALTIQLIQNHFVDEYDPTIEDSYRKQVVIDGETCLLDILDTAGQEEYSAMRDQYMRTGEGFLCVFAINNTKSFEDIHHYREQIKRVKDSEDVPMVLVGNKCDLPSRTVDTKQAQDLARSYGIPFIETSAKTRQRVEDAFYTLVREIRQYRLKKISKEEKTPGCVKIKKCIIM

GDP-bound HRAS wild-type protein, sequence (P01112 whole entry): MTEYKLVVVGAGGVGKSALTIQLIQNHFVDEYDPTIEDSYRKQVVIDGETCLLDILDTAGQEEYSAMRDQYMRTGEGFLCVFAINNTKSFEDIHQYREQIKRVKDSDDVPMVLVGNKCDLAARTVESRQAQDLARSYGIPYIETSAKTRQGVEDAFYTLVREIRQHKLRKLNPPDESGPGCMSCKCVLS
GDP-bound NRAS wild-type protein, sequence (P01111 whole entry): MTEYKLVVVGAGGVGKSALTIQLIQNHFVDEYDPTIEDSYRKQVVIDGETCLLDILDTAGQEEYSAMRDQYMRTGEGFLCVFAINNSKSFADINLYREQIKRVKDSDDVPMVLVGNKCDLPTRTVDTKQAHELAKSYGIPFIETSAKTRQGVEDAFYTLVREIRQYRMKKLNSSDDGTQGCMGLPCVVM

| IC50 [2] | Kd [4] | Compound | NRAS/KRAS (ratio of KD value for NRAS to KD value for KRAS) [1] | HRAS/KRAS (ratio of KD value for HRAS to KD value for KRAS) [3] |
| --- | --- | --- | --- | --- |
| 39.6 nM | 1.8 nM | CCC(CC)[C@H]1C(=O)N(C)[C@H](C(=O)N(C)C)CC(=O)N(C)[C@@H](CC2CC2)C(=O)N[C@@H]([C@@H](C)CC)C(=O)N(C)CC(=O)N(C)[C@H]2C/C=C\CCN(C2=O)[C@@H](CC2CCC(F)(F)CC2)C(=O)N(C)CC(=O)N[C@@H](CCc2ccc(C(F)(F)F)c(OC)c2)C(=O)N2C[C@@H](C)C[C@H]2C(=O)NC2(CC(C)(C)C2)C(=O)N1C [PP2494] | A (a compound having 10 or more and less than 20 is denoted as A) | A (a compound having 10 or more and less than 20 is denoted as A) |
| 17.4 nM | 0.84 nM | CCO[C@@H]1C[C@H]2C(=O)NC3(CC(C)(C)C3)C(=O)N(C)[C@@H](C(CC)CC)C(=O)N(C)[C@H](C(=O)N(C)C)CC(=O)N(C)[C@@H](CC3CC3)C(=O)N[C@@H]([C@@H](C)CC)C(=O)N(C)CC(=O)N(C)[C@H]3C/C=C\CCN(C3=O)[C@@H](CC3CCC(F)(F)CC3)C(=O)N(C)CC(=O)N[C@@H](CCc3ccc(C(F)(F)F)c(Cl)c3)C(=O)N2C1 [PP2495] | A (a compound having 10 or more and less than 20 is denoted as A) | A (a compound having 10 or more and less than 20 is denoted as A) |
| 84.8 nM | 1.5 nM | CCC[C@H]1C(=O)N[C@@H]([C@@H](C)CC)C(=O)N(C)CC(=O)N(C)[C@H]2C/C=C\CCN(C2=O)[C@@H](CC2CCC(F)(F)CC2)C(=O)N(C)CC(=O)N[C@@H](CCc2ccc(C(F)(F)F)c(OC)c2)C(=O)N2C[C@@H](C)C[C@H]2C(=O)NC2(CC(C)(C)C2)C(=O)N(C)[C@@H](C(CC)CC)C(=O)N(C)[C@H](C(=O)N(C)C)CC(=O)N1C [PP2497] | A (a compound having 10 or more and less than 20 is denoted as A) | A (a compound having 10 or more and less than 20 is denoted as A) |
| 21.9 nM | 0.67 nM | CCC[C@H]1C(=O)N[C@@H]([C@@H](C)CC)C(=O)N(C)CC(=O)N(C)[C@H]2C/C=C\CCN(C2=O)[C@@H](CC2CCC(F)(F)CC2)C(=O)N(C)CC(=O)N[C@@H](CCc2ccc(C(F)(F)F)c(Cl)c2)C(=O)N2C[C@H](OCC)C[C@H]2C(=O)NC2(CC(C)(C)C2)C(=O)N(C)[C@@H](C(CC)CC)C(=O)N(C)[C@H](C(=O)N(C)C)CC(=O)N1C [PP2498] | A (a compound having 10 or more and less than 20 is denoted as A) | A (a compound having 10 or more and less than 20 is denoted as A) |
| 125 nM | 1.7 nM | CCC(CC)[C@H]1C(=O)N(C)[C@H](C(=O)N(C)C)CC(=O)N(C)[C@@H](CC2CC2)C(=O)N[C@@H]([C@@H](C)CC)C(=O)N(C)CC(=O)N(C)[C@H]2C/C=C\CCN(C2=O)[C@@H](CC2CCC(F)(F)CC2)C(=O)N(C)CC(=O)N[C@@H](CCc2cc(F)c(C(F)(F)F)c(F)c2)C(=O)N2C[C@@H](C)C[C@H]2C(=O)NC2(CC(C)(C)C2)C(=O)N1C [PP2500] | A (a compound having 10 or more and less than 20 is denoted as A) | A (a compound having 10 or more and less than 20 is denoted as A) |

The next lines start with the compound.

| Compound | IC50 [2] | Kd [4] | NRAS/KRAS (ratio of KD value for NRAS to KD value for KRAS) [1] | HRAS/KRAS (ratio of KD value for HRAS to KD value for KRAS) [3] |
| --- | --- | --- | --- | --- |
| CCCOC[C@H]1C(=O)N[C@@H]([C@@H](C)CC)C(=O)N(C)CC(=O)N(C)[C@H]2C/C=C\CCN(C2=O)[C@@H](CC2CCC(F)(F)CC2)C(=O)N(C)CC(=O)N[C@@H](CCc2ccc(C(F)(F)F)c(Cl)c2)C(=O)N2C[C@H](OCC)C[C@H]2C(=O)NC2(CC(C)(C)C2)C(=O)N(C)[C@@H](C(CC)CC)C(=O)N(C)[C@H](C(=O)N(C)C)CC(=O)N1C [PP2484] | 74.3 nM | 1 nM | A (a compound having 10 or more and less than 20 is denoted as A) | A (a compound having 10 or more and less than 20 is denoted as A) |
| CCO[C@@H]1C[C@H]2C(=O)NC3(CC(C)(C)C3)C(=O)N(C)[C@@H](C(CC)CC)C(=O)N(C)[C@H](C(=O)N(C)C)CC(=O)N(C)[C@@H](CC3CC3)C(=O)N[C@@H]([C@@H](C)CC)C(=O)N(C)CC(=O)N(C)[C@H]3C/C=C\CCN(C3=O)[C@@H](CC3CCC(F)(F)CC3)C(=O)N(C)CC(=O)N[C@@H](CCc3cc(F)c(C(F)(F)F)c(F)c3)C(=O)N2C1 [PP2485] | 55.5 nM | 0.78 nM | A (a compound having 10 or more and less than 20 is denoted as A) | A (a compound having 10 or more and less than 20 is denoted as A) |
| CCOC[C@H]1C(=O)N[C@@H]([C@@H](C)CC)C(=O)N(C)CC(=O)N(C)[C@H]2C/C=C\CCN(C2=O)[C@@H](CC2CCCCC2)C(=O)N(C)CC(=O)N[C@@H](CCc2ccc(C(F)(F)F)c(Cl)c2)C(=O)N2C[C@H](OCC)C[C@H]2C(=O)NC2(CC(C)(C)C2)C(=O)N(C)[C@@H](C(CC)CC)C(=O)N(C)[C@H](C(=O)N(C)C)CC(=O)N1C [PP2488] | 171 nM | 1.6 nM | A (a compound having 10 or more and less than 20 is denoted as A) | A (a compound having 10 or more and less than 20 is denoted as A) |
| CCC[C@H]1C(=O)N[C@@H]([C@@H](C)CC)C(=O)N(C)CC(=O)N(C)[C@H]2C/C=C\CCN(C2=O)[C@@H](CC2CCC(F)(F)CC2)C(=O)N(C)CC(=O)N[C@@H](CCc2cc(F)c(C(F)(F)F)c(F)c2)C(=O)N2C[C@H](OCC)C[C@H]2C(=O)NC2(CC(C)(C)C2)C(=O)N(C)[C@@H](C(CC)CC)C(=O)N(C)[C@H](C(=O)N(C)C)CC(=O)N1C [PP2489] | 30.5 nM | 0.55 nM | A (a compound having 10 or more and less than 20 is denoted as A) | A (a compound having 10 or more and less than 20 is denoted as A) |
| CCCOC[C@H]1C(=O)N[C@@H]([C@@H](C)CC)C(=O)N(C)CC(=O)N(C)[C@H]2C/C=C\CCN(C2=O)[C@@H](CC2CCC(F)(F)CC2)C(=O)N(C)CC(=O)N[C@@H](CCc2cc(F)c(C(F)(F)F)c(F)c2)C(=O)N2C[C@@H](C)C[C@H]2C(=O)NC2(CC(C)(C)C2)C(=O)N(C)[C@@H](C(CC)CC)C(=O)N(C)[C@H](C(=O)N(C)C)CC(=O)N1C [PP2490] | 162 nM | 1.7 nM | AA (a compound having 20 or more is denoted as AA) | A (a compound having 10 or more and less than 20 is denoted as A) |
| CCO[C@@H]1C[C@H]2C(=O)NC3(CC(C)(C)C3)C(=O)N(C)[C@@H](C(CC)CC)C(=O)N(C)[C@H](C(=O)N(C)C)CC(=O)N(C)[C@@H](C(C)C)C(=O)N[C@@H]([C@@H](C)CC)C(=O)N(C)CC(=O)N(C)[C@H]3C/C=C\CCN(C3=O)[C@@H](CC3CCC(F)(F)CC3)C(=O)N(C)CC(=O)N[C@@H](CCc3ccc(C(F)(F)F)c(Cl)c3)C(=O)N2C1 [PP2492] | 76.7 nM | 2.4 nM | AA (a compound having 20 or more is denoted as AA) | A (a compound having 10 or more and less than 20 is denoted as A) |
| CCC(CC)[C@H]1C(=O)N(C)[C@H](C(=O)N(C)C)CC(=O)N(C)[C@@H](C(C)C)C(=O)N[C@@H]([C@@H](C)CC)C(=O)N(C)CC(=O)N(C)[C@H]2C/C=C\CCN(C2=O)[C@@H](CC2CCC(F)(F)CC2)C(=O)N(C)CC(=O)N[C@@H](CCc2cc(F)c(C(F)(F)F)c(F)c2)C(=O)N2C[C@@H](C)C[C@H]2C(=O)NC2(CC(C)(C)C2)C(=O)N1C [PP2496] | 97.3 nM | 6.2 nM | A (a compound having 10 or more and less than 20 is denoted as A) | A (a compound having 10 or more and less than 20 is denoted as A) |
| CCCOC[C@H]1C(=O)N[C@@H]([C@@H](C)CC)C(=O)N(C)CC(=O)N(C)[C@H]2C/C=C\CCN(C2=O)[C@@H](CC2CCCCC2)C(=O)N(C)CC(=O)N[C@@H](CCc2cc(F)c(C(F)(F)F)c(F)c2)C(=O)N2C[C@H](OCC)C[C@H]2C(=O)NC2(CC(C)(C)C2)C(=O)N(C)[C@@H](C(CC)CC)C(=O)N(C)[C@H](C(=O)N(C)C)CC(=O)N1C [PP2501] | 180 nM | 1.8 nM | AA (a compound having 20 or more is denoted as AA) | A (a compound having 10 or more and less than 20 is denoted as A) |
| CC[C@H](C)[C@@H]1NC(=O)[C@H](COC)N(C)C(=O)C[C@@H](C(=O)N(C)C)N(C)C(=O)[C@H](C2CCCC2)N(C)C(=O)C2(CC(C)(C)C2)NC(=O)[C@@H]2C[C@H](C)CN2C(=O)[C@H](CCc2ccc(C(F)(F)F)c(Cl)c2)NC(=O)CN(C)C(=O)[C@H](Cc2ccc(C)cc2)N2CC/C=C\C[C@@H](C2=O)N(C)C(=O)CN(C)C1=O [PP2502] | 7.9 nM | 0.065 nM | A (a compound having 10 or more and less than 20 is denoted as A) | A (a compound having 10 or more and less than 20 is denoted as A) |
| CCOC[C@H]1C(=O)N[C@@H]([C@@H](C)CC)C(=O)N(C)CC(=O)N(C)[C@H]2C/C=C\CCN(C2=O)[C@@H](Cc2ccc(C)cc2)C(=O)N(C)CC(=O)N[C@@H](CCc2ccc(C(F)(F)F)c(OC)c2)C(=O)N2C[C@@H](C)C[C@H]2C(=O)NC2(CC(C)(C)C2)C(=O)N(C)[C@@H](C2CCCC2)C(=O)N(C)[C@H](C(=O)N(C)C)CC(=O)N1C [PP2505] | 17.2 nM | 0.13 nM | A (a compound having 10 or more and less than 20 is denoted as A) | B (a compound having 3 or more and less than 10 is denoted as B) |
